Assay results published in patent US5945436A, “Pyridylmethyl nitriles, amides and thioamides useful as fungicides” (Uniroyal Chemical Company, Inc., priority 1997, dated 1999).

Key:
Erysiphe graminis = assay: Powdery mildew of barley, systemic root uptake (BMS); type: in vivo; conditions: 45 ml of 250 mg/l, 8 days after inoculation
Summary of the method: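 Pot soil of barley (BMS) and cucumber (CMS) plants was drenched with 45 ml of a 250 mg/l acetone/Tween 20 aqueous emulsion, with untreated plants as controls. Disease was scored on a rating scale that included intermediate grades.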

[1] = system: Cercosporidium personatum; assay: Fungal germination and growth, treated disc on agar, scored (CER PER); type: cell-based; parameters: key: 100: Complete inhibition of germination and growth.; 80: Nearly complete inhibition but some growth.; 50: Partial inhibition of growth or, early complete inhibition but later growth begins.; 20: Some inhibition of growth, but not significant.; 0: No inhibition of growth; conditions: disc dipped in 500 mg/l, 29° C., numerical score 0-100, spore suspension
Text: Filter paper discs, each 11 mm. in diameter, were dipped in each of the test solutions. The discs were allowed to air dry to drive off the acetone solvent. A number of untreated discs were used as controls. The treated and untreated discs were then placed on agar plates and one of the following fungus species: Septoria nodorum (SEP NOD), Botrytis cinerea (BOT CIN), Fusarium oxysporum (FUS OXY), Pythium ultimum ([…]), Rhizoctonia solani (RHI SOL), Colletotrichum gossypii (COL GOS), and Scierotinia minor (SCL MIN), was added to the center of each disc in the form of a culture plug with the fungus mat in contact with the paper of the test disc. Cercosporidium personatum (CER PER), was added to discs as a spore suspension (20,000 spores/ml) to the disc (two drops of spore suspension per disc), rather than a mycelial culture plug. The plates were then incubated at 29° C. in an oven. In the case of the Cercosporidium personatum (CER PER) fungi, scoring was done on a numerical basis as follows: 100=Complete inhibition of germination and growth. 80=Nearly complete inhibition but some growth. 50=Partial inhibition of growth or, early complete inhibition but later growth begins. 20=Some inhibition of growth, but not significant. 0=No inhibition of growth. The results of all the above tests appear in Table III below under the headings "SEP NOD," "BOT CIN," "FUS OXY," "[…]" "COL GOS" and "CER PER".

Colletotrichum gossypii = assay: Fungal growth inhibition, treated disc on agar (COL GOS); type: cell-based; conditions: Colletotrichum gossypii, disc dipped in 500 mg/l, 29° C., read-out: Percent Growth Inhibition, COL GOS
Scierotinia minor = assay: Fungal growth inhibition, treated disc on agar (SCL MIN); type: cell-based; conditions: disc dipped in 500 mg/l, 29° C., read-out: Percent Growth Inhibition, SCL MIN
Description: (§1) The treated and untreated discs were then placed on agar plates and one of the following fungus species: Septoria nodorum (SEP NOD), Botrytis cinerea (BOT CIN), Fusarium oxysporum (FUS OXY), Pythium ultimum (PYT ULT), Rhizoctonia solani (RHI SOL), Colletotrichum gossypii (COL GOS), and Scierotinia minor (SCL MIN), was added to the center of each disc in the form of a culture plug with the fungus mat in contact with the paper of the test disc. Cercosporidium personatum (CER PER), was added to discs as a spore suspension (20,000 spores/ml) to the disc (two drops of spore suspension per disc), rather than a mycelial culture plug. The plates were then incubated at 29° C. in an oven.
(§2) With the exception of the discs containing Cercosporidium personatum, the discs were evaluated by first measuring the radius from the center of the fungus colony on the treated discs and on the untreated discs. Percent growth inhibition of each of the compounds tested was determined as a function of the difference between the radius of the fungus colony on the treated disc versus the radius of the fungus colony on the untreated disc.

Fusarium oxysporum = assay: Fungal growth inhibition, treated disc on agar (FUS OXY); type: cell-based; conditions: Fusarium oxysporum, disc dipped in 500 mg/l, 29° C., read-out: Percent Growth Inhibition, FUS OXY
Erysiphe polygoni = assay: Powdery mildew on pinto bean, foliar application (ERY POL); type: in vivo; conditions: Erysiphe polygoni, similar procedure as barley (1,000 mg/l), read-out: Percent Reduction of Disease, ERY POL
Summary of the method: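 Pinto bean plants sprayed with compound emulsion (acetone or inert solvent, TWEEN 20, water) at 1,000 mg/l, or left unsprayed, dried, then inoculated with Erysiphe polygoni spores in a 21° C greenhouse. Disease scored; percent control computed against untreated controls.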

Pythium ultimum = assay: Fungal growth inhibition, treated disc on agar (PYT ULT); type: cell-based; conditions: Globisporangium ultimum, disc dipped in 500 mg/l, 29° C., read-out: Percent Growth Inhibition, PYT ULT
Description: as §1, §2

| SMILES | Percent Reduction of Disease, BMS (Erysiphe graminis) [%] | CER PER inhibition score [1] | inhibition at 500 µg/mL (Colletotrichum gossypii) [%] | inhibition at 500 µg/mL (Scierotinia minor) [%] | inhibition at 500 µg/mL (Fusarium oxysporum) [%] | pest or weed control at 1000 µg/mL (Erysiphe polygoni) [%] | inhibition at 500 µg/mL (Pythium ultimum) [%] |
| --- | --- | --- | --- | --- | --- | --- | --- |
| C=CCC(C#N)(CCc1ccc(OCCCC)cc1)c1cccnc1 (stereo not shown) [Compound 56] | 0 | 0 | 35 | 45 | 60 | 90 | 5 |
| CCCCOc1ccc(CCC(C#N)(CCC)c2cccnc2)cc1 (stereo not shown) [Compound 57] | 0 | 0 | 15 | 65 | 55 | 90 | 5 |
| CCCCOc1ccc(CCC(C#N)(CC(C)C)c2cccnc2)cc1 (stereo not shown) [Compound 58] | 0 | 0 | 15 | 75 | 40 | 85 | 0 |
| CC=CCC(C#N)(CCc1ccc(F)cc1)c1cccnc1 (stereo not shown) [Compound 59] | 75 | 0 | 100 | 70 | 100 | 90 | 5 |
| CCCCCC(C#N)(CCc1ccc(F)cc1)c1cccnc1 (stereo not shown) [Compound 60] | 75 | 0 | 30 | 100 | 20 | 90 | 50 |
| C#CCC(CCc1ccccc1)(C(N)=S)c1cccnc1 (stereo not drawn) [Compound 61, α-(2-phenylethyl)-α-(2-propynyl)-3-pyridinethanethioamide] | 20 | 100 | 100 | 100 | 100 | 100 | 100 |
| CCCCCC(CCc1ccc(F)cc1)(C(N)=O)c1cccnc1 (stereo not shown) [Compound 62] | 20 | 0 | 25 | 100 | 10 | 100 | 5 |
| CCCCC(C#N)(CCCc1ccccc1OC)c1cccnc1 (stereo not shown) [Compound 63] | 0 | 0 | 25 | 100 | 20 | 100 | 10 |
| N#CC(CCCF)(CCc1ccc(F)cc1)c1cccnc1 (stereo not shown) [Compound 64] | 20 | 0 | 55 | 50 | 100 | 100 | 0 |
| C=C(Cl)CC(C#N)(CCc1ccc(F)cc1)c1cccnc1 (stereo not shown) [Compound 65] | 0 | 0 | 100 | 100 | 100 | 100 | 100 |
| N#CC(CCCF)(CCc1ccccc1F)c1cccnc1 (stereo not shown) [Compound 66] | 100 | 0 | 100 | 100 | 100 | 100 | 0 |
| C=CCC(C#N)(CCc1ccccc1F)c1cccnc1 (stereo not shown) [Compound 67] | 100 | 100 | 100 | 100 | 100 | 100 | 20 |
| CCCCC(C#N)(CCc1ccc(OCCF)cc1)c1cccnc1 (stereo not shown) [Compound 68] | 0 | 100 | 100 | 100 | 100 | 100 | 40 |
